Patent US20120029187A1, “HALOALKYLSULFONANILIDE DERIVATIVE” (Nissan Chemical Industries, Ltd., priority 2009, published 2012)

Tests used:
Assay type in all cases: in vivo
barnyardgrass [1] = experiment: Test Example 1: herbicidal effects in preemergence treatment under submerged conditions; settings: dose 2.52 g/a
Description: (§1) Test on the Herbicidal Effects in Preemergence Treatment on Weeds Under Submerged Conditions
(§2) Alluvial soil was put in 1/30000-are styrol cups and admixed with water so that it was submerged at a depth of 4 cm. In each cup, seeds of barnyardgrass, bulrush and ducksalad were sown together, and rice seedlings at the 2.5-leaf stage were transplanted. On the same day as the seeding, emulsifiable concentrates containing compounds of the present invention formulated in accordance with Formulation Example 2 were applied to the water surfaces at predetermined doses after diluted with water. The cups were placed in a greenhouse at 25 to 30° C. to grow the plants. Three weeks after the application, the herbicidal effects against various plants were determined on the following evaluation scale.
(§3) 5 mortality of 90% or above (nearly complete death)
(§4) 4 mortality of at least 70% and less than 90%
(§5) 3 mortality of at least 40% and less than 70%
(§6) 2 mortality of at least 20% and less than 40%
(§7) 1 mortality of at least 5% and less than 20%
(§8) 0 mortality of less than 5% (almost ineffective)
(§9) A: barnyardgrass, B: bulrush, C: ducksalad, D: large crabgrass, E: giant foxtail, F: wild oat, G: water foxtail, H: Italian ryegrass, I: velvetleaf, J: common ragweed, K: redroot pigweed, L: common lambsquater, M: posumbu knotweed, N: common chickweed, O: beadstraw, a: transplanted rice, b: corn, c: soybean, d: direct-seeded rice, e: wheat, f: sugar beet.
(§10) The doses (g/a) represents the amounts in g per 1 are (a) applied after adjustment of concentration adjustment.

bulrush [2] = experiment: as above; settings: dose 2.52 g/a
Description: as §1, §2, §3, §4, §5, §6, §7, §8, §9, §10

ducksalad [3] = experiment: as above; settings: dose 2.52 g/a
Description: as §1, §2, §3, §4, §5, §6, §7, §8, §9, §10

transplanted rice = experiment: Test Example 1: preemergence treatment under submerged conditions, effect on crop; settings: dose 2.52 g/a
Description: as §1, §2, §3, §4, §5, §6, §7, §8, §9, §10

barnyardgrass [4] = experiment: Test Example 2: herbicidal effects during the vegetation period under submerged conditions; settings: treatment during the vegetation period under submerged conditions; dose 2.52 g/a
Description: (§11) Test on the Herbicidal Effects on Weeds During the Vegetation Period Under Submerged Conditions
(§12) Alluvial soil was put in 1/30000-are styrol cups and admixed with water so that it was submerged at a depth of 4 cm. In each cup, seeds of barnyardgrass, bulrush and ducksalad were sown together, and the cups were placed in a greenhouse at 25 to 30° C. to grow the plants. When the barnyardgrass, bulrush and ducksalad reached the 1- or 2-leaf stage, emulsifiable concentrates containing compounds of the present invention formulated in accordance with Formulation Example 2 were applied to the water surfaces at predetermined doses after diluted with water. Three weeks after the application, the herbicidal effects against various plants were determined on the same evaluation scale as in Test Example 1.
as §9, §10

bulrush [5] = experiment: as above; settings: treatment during the vegetation period under submerged conditions; dose 2.52 g/a
Description: as §11, §12, §9, §10

ducksalad [6] = experiment: as above; settings: treatment during the vegetation period under submerged conditions; dose 2.52 g/a
Description: as §11, §12, §9, §10

Italian ryegrass [7] = experiment: Test Example 3: herbicidal effects in soil treatment; settings: dose 3.2 g/a
Description: (§13) Test on the Herbicidal Effects in Soil Treatment
(§14) Sterilized diluvial soil was put in plastic boxes with a length of 21 cm, a width of 13 cm and a depth of 7 cm, and seeds of barnyardgrass, large crabgrass, giant foxtail, wild oat, blackgrass, velvetleaf, common ragweed, redroot pigweed, common lambsquater, posumbu knotweed, common chickweed corn, soybean, rice, wheat and sugar beet were sown in spots and covered with an about 1.5 cm-thick soil layer. Emulsifiable concentrates containing compounds of the present invention formulated in accordance with Formulation Example 2 were uniformly applied to the soil surfaces at predetermined doses through a small sprayer after dilute with water. Three weeks after the application, the herbicidal effects against various plants were determined on the same evaluation scale as in Test Example 1.
as §9, §10

barnyardgrass [8] = experiment: as above; settings: dose 3.2 g/a
Description: as §13, §14, §9, §10

common chickweed [9] = experiment: as above; settings: dose 3.2 g/a
Description: as §13, §14, §9, §10

common lambsquater [10] = experiment: as above; settings: dose 3.2 g/a
Description: as §13, §14, §9, §10

common ragweed [11] = experiment: as above; settings: dose 3.2 g/a
Description: as §13, §14, §9, §10

giant foxtail [12] = experiment: as above; settings: dose 3.2 g/a
Description: as §13, §14, §9, §10

large crabgrass [13] = experiment: as above; settings: dose 3.2 g/a
Description: as §13, §14, §9, §10

posumbu knotweed [14] = experiment: as above; settings: dose 3.2 g/a
Description: as §13, §14, §9, §10

redroot pigweed [15] = experiment: as above; settings: dose 3.2 g/a
Description: as §13, §14, §9, §10

water foxtail [16] = experiment: as above; settings: dose 3.2 g/a
Description: as §13, §14, §9, §10

Italian ryegrass [17] = experiment: Test Example 4: herbicidal effect in foliage treatment; settings: dose 3.2 g/a, three weeks after the application
Description: (§15) Test on the Herbicidal Effect in Foliage Treatment
as §14, with “chickweed,” for “chickweed”, “The boxes were placed in a greenhouse at 25 to 30° C. to grow the plants. After 14 days, emulsifiable” for “Emulsifiable”, “foliage” for “soil surfaces”, “diluted” for “dilute”
as §9, §10

barnyardgrass [18] = experiment: as above; settings: dose 3.2 g/a, three weeks after the application
Description: as §15
as §14, with “chickweed,” for “chickweed”, “The boxes were placed in a greenhouse at 25 to 30° C. to grow the plants. After 14 days, emulsifiable” for “Emulsifiable”, “foliage” for “soil surfaces”, “diluted” for “dilute”
as §9, §10

beadstraw = experiment: as above; settings: dose 3.2 g/a, three weeks after the application
Description: as §15
as §14, with “chickweed,” for “chickweed”, “The boxes were placed in a greenhouse at 25 to 30° C. to grow the plants. After 14 days, emulsifiable” for “Emulsifiable”, “foliage” for “soil surfaces”, “diluted” for “dilute”
as §9, §10

common chickweed [19] = experiment: as above; settings: dose 3.2 g/a, three weeks after the application
Description: as §15
as §14, with “chickweed,” for “chickweed”, “The boxes were placed in a greenhouse at 25 to 30° C. to grow the plants. After 14 days, emulsifiable” for “Emulsifiable”, “foliage” for “soil surfaces”, “diluted” for “dilute”
as §9, §10

common lambsquater [20] = experiment: as above; settings: dose 3.2 g/a, three weeks after the application
Description: as §15
as §14, with “chickweed,” for “chickweed”, “The boxes were placed in a greenhouse at 25 to 30° C. to grow the plants. After 14 days, emulsifiable” for “Emulsifiable”, “foliage” for “soil surfaces”, “diluted” for “dilute”
as §9, §10

common ragweed [21] = experiment: as above; settings: dose 3.2 g/a, three weeks after the application
Description: as §15
as §14, with “chickweed,” for “chickweed”, “The boxes were placed in a greenhouse at 25 to 30° C. to grow the plants. After 14 days, emulsifiable” for “Emulsifiable”, “foliage” for “soil surfaces”, “diluted” for “dilute”
as §9, §10

giant foxtail [22] = experiment: as above; settings: dose 3.2 g/a, three weeks after the application
Description: as §15
as §14, with “chickweed,” for “chickweed”, “The boxes were placed in a greenhouse at 25 to 30° C. to grow the plants. After 14 days, emulsifiable” for “Emulsifiable”, “foliage” for “soil surfaces”, “diluted” for “dilute”
as §9, §10

large crabgrass [23] = experiment: as above; settings: dose 3.2 g/a, three weeks after the application
Description: as §15
as §14, with “chickweed,” for “chickweed”, “The boxes were placed in a greenhouse at 25 to 30° C. to grow the plants. After 14 days, emulsifiable” for “Emulsifiable”, “foliage” for “soil surfaces”, “diluted” for “dilute”
as §9, §10

posumbu knotweed [24] = experiment: as above; settings: dose 3.2 g/a, three weeks after the application
Description: as §15
as §14, with “chickweed,” for “chickweed”, “The boxes were placed in a greenhouse at 25 to 30° C. to grow the plants. After 14 days, emulsifiable” for “Emulsifiable”, “foliage” for “soil surfaces”, “diluted” for “dilute”
as §9, §10

redroot pigweed [25] = experiment: as above; settings: dose 3.2 g/a, three weeks after the application
Description: as §15
as §14, with “chickweed,” for “chickweed”, “The boxes were placed in a greenhouse at 25 to 30° C. to grow the plants. After 14 days, emulsifiable” for “Emulsifiable”, “foliage” for “soil surfaces”, “diluted” for “dilute”
as §9, §10

velvetleaf = experiment: as above; settings: dose 3.2 g/a, three weeks after the application
Description: as §15
as §14, with “chickweed,” for “chickweed”, “The boxes were placed in a greenhouse at 25 to 30° C. to grow the plants. After 14 days, emulsifiable” for “Emulsifiable”, “foliage” for “soil surfaces”, “diluted” for “dilute”
as §9, §10

water foxtail [26] = experiment: as above; settings: dose 3.2 g/a, three weeks after the application
Description: as §15
as §14, with “chickweed,” for “chickweed”, “The boxes were placed in a greenhouse at 25 to 30° C. to grow the plants. After 14 days, emulsifiable” for “Emulsifiable”, “foliage” for “soil surfaces”, “diluted” for “dilute”
as §9, §10

SMILES	A: barnyardgrass, herbicidal effect (evaluation scale 0-5) (barnyardgrass [1])	B: bulrush, herbicidal effect (evaluation scale 0-5) (bulrush [2])	C: ducksalad, herbicidal effect (evaluation scale 0-5) (ducksalad [3])	a: transplanted rice, effect on crop (evaluation scale 0-5) (transplanted rice)	A: barnyardgrass, herbicidal effect (evaluation scale 0-5) (barnyardgrass [4])	B: bulrush, herbicidal effect (evaluation scale 0-5) (bulrush [5])	C: ducksalad, herbicidal effect (evaluation scale 0-5) (ducksalad [6])	herbicidal effect, H: Italian ryegrass (Italian ryegrass [7])	herbicidal effect, A: barnyardgrass (barnyardgrass [8])	herbicidal effect, N: common chickweed (common chickweed [9])	herbicidal effect, L: common lambsquater (common lambsquater [10])	herbicidal effect, J: common ragweed (common ragweed [11])	herbicidal effect, E: giant foxtail (giant foxtail [12])	herbicidal effect, D: large crabgrass (large crabgrass [13])	herbicidal effect, M: posumbu knotweed (posumbu knotweed [14])	herbicidal effect, K: redroot pigweed (redroot pigweed [15])	herbicidal effect, G: water foxtail (water foxtail [16])	H: Italian ryegrass, herbicidal effect (Italian ryegrass [17])	A: barnyardgrass, herbicidal effect (barnyardgrass [18])	O: beadstraw, herbicidal effect (beadstraw)	also measured
CCOC(=O)N(c1ccccc1CN1OCC(C(F)(F)F)OC1=O)S(=O)(=O)C(F)(F)F (stereo not shown) [III-9]	4 (mortality of at least 70% and less than 90%)	5 (mortality of 90% or above (nearly complete death))	0 (mortality of less than 5% (almost ineffective))	0 (mortality of less than 5% (almost ineffective))	4 (mortality of at least 70% and less than 90%)	5 (mortality of 90% or above (nearly complete death))	4 (mortality of at least 70% and less than 90%)	0 (mortality of less than 5% (almost ineffective))	2 (mortality of at least 20% and less than 40%)	1 (mortality of at least 5% and less than 20%)	3 (mortality of at least 40% and less than 70%)	0 (mortality of less than 5% (almost ineffective))	2 (mortality of at least 20% and less than 40%)	0 (mortality of less than 5% (almost ineffective))	1 (mortality of at least 5% and less than 20%)	0 (mortality of less than 5% (almost ineffective))	5 (mortality of 90% or above (nearly complete death))	0 (mortality of less than 5% (almost ineffective))	0 (mortality of less than 5% (almost ineffective))	3 (mortality of at least 40% and less than 70%)	N: common chickweed, herbicidal effect (common chickweed [19]): 3 (mortality of at least 40% and less than 70%); L: common lambsquater, herbicidal effect (common lambsquater [20]): 2 (mortality of at least 20% and less than 40%); J: common ragweed, herbicidal effect (common ragweed [21]): 0 (mortality of less than 5% (almost ineffective)); E: giant foxtail, herbicidal effect (giant foxtail [22]): 0 (mortality of less than 5% (almost ineffective)); D: large crabgrass, herbicidal effect (large crabgrass [23]): 0 (mortality of less than 5% (almost ineffective)); M: posumbu knotweed, herbicidal effect (posumbu knotweed [24]): 2 (mortality of at least 20% and less than 40%); K: redroot pigweed, herbicidal effect (redroot pigweed [25]): 0 (mortality of less than 5% (almost ineffective)); I: velvetleaf, herbicidal effect (velvetleaf): 3 (mortality of at least 40% and less than 70%); G: water foxtail, herbicidal effect (water foxtail [26]): 5 (mortality of 90% or above (nearly complete death))
CC1(C)CON(Cc2ccccc2NS(=O)(=O)C(F)(F)F)C(=O)O1 [III-10]	5 (mortality of 90% or above (nearly complete death))	5 (mortality of 90% or above (nearly complete death))	5 (mortality of 90% or above (nearly complete death))	0 (mortality of less than 5% (almost ineffective))	5 (mortality of 90% or above (nearly complete death))	5 (mortality of 90% or above (nearly complete death))	5 (mortality of 90% or above (nearly complete death))	4 (mortality of at least 70% and less than 90%)	5 (mortality of 90% or above (nearly complete death))	4 (mortality of at least 70% and less than 90%)	4 (mortality of at least 70% and less than 90%)	5 (mortality of 90% or above (nearly complete death))	4 (mortality of at least 70% and less than 90%)	5 (mortality of 90% or above (nearly complete death))	5 (mortality of 90% or above (nearly complete death))	2 (mortality of at least 20% and less than 40%)	5 (mortality of 90% or above (nearly complete death))	4 (mortality of at least 70% and less than 90%)	5 (mortality of 90% or above (nearly complete death))	5 (mortality of 90% or above (nearly complete death))	N: common chickweed, herbicidal effect (common chickweed [19]): 1 (mortality of at least 5% and less than 20%); L: common lambsquater, herbicidal effect (common lambsquater [20]): 4 (mortality of at least 70% and less than 90%); J: common ragweed, herbicidal effect (common ragweed [21]): 5 (mortality of 90% or above (nearly complete death)); E: giant foxtail, herbicidal effect (giant foxtail [22]): 1 (mortality of at least 5% and less than 20%); D: large crabgrass, herbicidal effect (large crabgrass [23]): 4 (mortality of at least 70% and less than 90%); M: posumbu knotweed, herbicidal effect (posumbu knotweed [24]): 5 (mortality of 90% or above (nearly complete death)); K: redroot pigweed, herbicidal effect (redroot pigweed [25]): 4 (mortality of at least 70% and less than 90%); I: velvetleaf, herbicidal effect (velvetleaf): 3 (mortality of at least 40% and less than 70%); G: water foxtail, herbicidal effect (water foxtail [26]): 5 (mortality of 90% or above (nearly complete death))
